Where two headings read alike, the source gives them in different places.
Assays:
TYK2-JH2 domain = biological target: T1, TYK2-JH2 domain (Homo sapiens, UniProt P29597); experiment: Binding activity test for JH2 domain of TYK2 (Tb-antibody/tracer FRET); settings: for JAK1/TYK2 selectivity: ratio JAK1-JH2 IC50 / TYK2-JH2 IC50
T1 construct: IC50 on JH2 domain activity (nM)
In short: (§1)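 Compounds tested as 11-point 3-fold serial dilutions against the JH2 domain in a Tb-antibody/tracer FRET binding format. Plates incubated 60 min at 25° C, then overnight at 4° C, before FRET reading.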

[1] = Microsomal metabolic stability assay; format: in vitro ADME; settings: pH 7.4, 0.5 mg/mL protein, 1 μM compound
In short: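 Test article at 1 μM with 0.5 mg/mL microsomal protein and 2 mM NADPH, in 100 mM potassium phosphate pH 7.4 with 1.0 mM EDTA at 37 °C. Sampled at 0–45 min and quantified by LC/MS/MS. T1/2 from the slope of ln % remaining vs time.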

[2] = biological target: T2, Ba/F3-FL-TYK2-P760L cells (Homo sapiens, UniProt P29597, P760L, cells depend on it); experiment: Anti-proliferative assay, Ba/F3-FL-TYK2-P760L cells (Cell-Titer Glo); format: cell-based; settings: 72 h, read-out: BaF3-FL-T2P760L IC50
T2 construct: BaF3-FL-T2P760L (nM)
T2 sequence (P29597 whole entry P760L): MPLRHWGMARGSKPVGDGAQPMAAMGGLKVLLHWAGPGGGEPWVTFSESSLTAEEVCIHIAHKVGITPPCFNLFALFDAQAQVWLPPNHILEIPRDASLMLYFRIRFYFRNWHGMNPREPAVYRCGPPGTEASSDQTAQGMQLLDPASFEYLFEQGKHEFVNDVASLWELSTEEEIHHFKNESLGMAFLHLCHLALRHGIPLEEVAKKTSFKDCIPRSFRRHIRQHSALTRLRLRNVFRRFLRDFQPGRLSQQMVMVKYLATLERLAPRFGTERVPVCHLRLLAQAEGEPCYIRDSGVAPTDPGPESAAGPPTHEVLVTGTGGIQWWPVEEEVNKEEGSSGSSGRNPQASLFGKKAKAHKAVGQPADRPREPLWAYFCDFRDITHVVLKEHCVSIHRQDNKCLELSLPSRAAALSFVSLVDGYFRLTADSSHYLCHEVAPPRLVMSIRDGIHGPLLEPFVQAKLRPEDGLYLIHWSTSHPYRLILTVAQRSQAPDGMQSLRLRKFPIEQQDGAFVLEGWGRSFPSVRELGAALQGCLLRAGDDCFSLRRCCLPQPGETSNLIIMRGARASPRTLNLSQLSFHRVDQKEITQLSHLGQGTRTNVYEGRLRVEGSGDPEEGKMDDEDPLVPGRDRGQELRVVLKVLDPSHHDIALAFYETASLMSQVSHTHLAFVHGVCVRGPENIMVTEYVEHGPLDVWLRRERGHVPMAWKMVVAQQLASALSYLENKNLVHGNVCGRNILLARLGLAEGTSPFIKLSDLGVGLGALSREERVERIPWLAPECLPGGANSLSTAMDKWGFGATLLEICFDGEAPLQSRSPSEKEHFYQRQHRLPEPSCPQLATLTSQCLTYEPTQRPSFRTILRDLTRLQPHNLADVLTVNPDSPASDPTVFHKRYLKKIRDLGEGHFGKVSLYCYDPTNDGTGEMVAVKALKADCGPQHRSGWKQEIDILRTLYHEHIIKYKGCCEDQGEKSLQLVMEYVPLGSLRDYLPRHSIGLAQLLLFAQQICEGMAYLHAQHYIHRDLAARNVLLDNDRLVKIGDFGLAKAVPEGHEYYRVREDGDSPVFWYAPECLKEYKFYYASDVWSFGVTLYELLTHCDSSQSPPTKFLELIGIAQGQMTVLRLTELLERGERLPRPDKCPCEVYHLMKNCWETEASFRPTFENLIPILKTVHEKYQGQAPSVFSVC
In short: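 Ba/F3 cells made IL-3-independent by TEL-fused or full-length mutant JAK-family kinases, seeded at 2000/well and dosed after 24 h with 9 three-fold dilutions topping at 20 μM. Viability after 72 h at 37 °C, 5% CO2 by Cell-Titer Glo ATP luminescence.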

JAK1-JH2 domain = biological target: T3, JAK1-JH2 domain (Homo sapiens, UniProt P23458); experiment: Binding activity test for JH2 domain of JAK1 (Tb-antibody/tracer FRET)
T3 construct: IC50 on JH2 domain activity (nM)
T3 sequence (P23458 583-855 limits assumed): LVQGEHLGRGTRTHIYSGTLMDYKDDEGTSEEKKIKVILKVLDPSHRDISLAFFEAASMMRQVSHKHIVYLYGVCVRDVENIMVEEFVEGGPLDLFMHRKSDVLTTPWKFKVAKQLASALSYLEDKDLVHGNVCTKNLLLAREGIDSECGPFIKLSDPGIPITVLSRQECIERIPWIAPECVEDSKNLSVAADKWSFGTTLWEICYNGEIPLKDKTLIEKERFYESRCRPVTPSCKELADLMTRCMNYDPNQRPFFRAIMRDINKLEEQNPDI
In short: as §1

[3] = Hepatocytes metabolic stability assay; format: in vitro ADME; settings: cryopreserved hepatocytes, human hepatocytes, 1.0×10^6 cells/mL; for CLint scaled at 1 μM: read-out: Human hepatocyte Clint(liver); for half-life at 1 μM: read-out: Human hepatocyte stability T1/2
Procedure: Hepatocytes Metabolic Stability Assay
The vials of cryopreserved hepatocytes were removed from the liquid nitrogen container and immediately immersed in a 37° C. water bath for approximately 2 min. The melted ice pellets were transferred into tubes containing 50 mL of pre-warmed thawing medium and mixed well by gently inverting the tubes, and then centrifuged at 500 rpm for 3 minutes at room temperature. The supernatants were discarded, and cell pellets were re-suspended by adding appropriate volumes of pre-warmed incubation medium. The cells viability of each species was determined using Trypan Blue exclusion. Add 50 μL of pre-warmed 2× dosing solution to the wells designated for different time points. Then 50 μL of cells suspension (2×10^6 cells/mL) were added into appropriate wells at corresponding time points of T15, T30, T60, T120. Start timing and put the plate in an incubator at 37° C. For TO sample, add 300 μL of ACN containing internal standard to the wells, mix gently, then add 50 μL of pre-warmed hepatocytes solution (2×10^6 cells/mL). The concentration of test compound was 1 μM and 1.0×10^6 cells/mL in the final incubation. At each corresponding time point, test and control compounds reaction samples were stopped by adding 300 μL acetonitrile containing internal standard. All sample plates were thoroughly mixed and centrifuged at 5000×g for 15 minutes. The supernatants were diluted at ratio of 1:1 with ultra-pure water for test and positive controls. Then submitted for LC-MS/MS analysis.
The analyte/internal standard peak area ratios were converted to percentage remaining with the following equation: […]
The in vitro elimination constant, k of test compounds and control compounds were calculated from a log linear plot of % Remaining versus time, then the half-life (T1/2), the estimation of the in vitro hepatic intrinsic clearance (CLint) values were calculated from substrate disappearance rate in hepatocytes incubation: […]

pSTAT1 = experiment: Phosphorylation inhibition of STAT in human whole blood, IFN-alpha stimulated (flow cytometry); format: cell-based; settings: 20 min, read-out: IC50 on pSTAT1 inhibition in h WB
Procedure: Phosphorylation Inhibition of STAT in Human PBMC and Human Whole Blood Testing:
The inhibitory potential of test articles in human PBMC and human whole blood assay was evaluated by the method of flow cytometry.
IFN-alpha will activate JAK1 and TYK2 kinase in T cells by binding to IFN receptors, and then lead to phosphorylation of STAT1 and STAT2. The phosphorylated STAT1 enter nuclear and promote transcription and expression of IFN-gamma. To evaluate the efficacy of TYK2i in T cells, freshly prepared human PBMC or freshly collected human whole blood will be stimulated with certain unit of human IFN-alpha (Universal Type I IFN(1MU), R&D, 11200-2) for 20 mins in incubator. After stimulation, fix cells with Phosflow™ Fix Buffer I (BD, 557870), and then collect fixed cells by centrifugation (500 g, 8 min). Wash cells once with pre-cooled PBS, and then permeabilize cells with cold Perm Buffer III buffer (BD, 558050) for 45 mins on ice. Collect cells by centrifugation (600 g, 8 min) and washed twice with cold PBS. Stain cells with anti-human CD3 (FITC Mouse Anti-Human CD3, BD, 555332) and anti-pSTAT1_Y701(Alexa Fluor 647 Mouse Anti-Stat1 (pY701), BD, 612597) antibodies. Detect pSTAT1 by flow cytometry (CytoFlex S) and analyze data with FlowJo and GraphPad Prism 8 software. IC50 values of test articles were determined using 4-parameter logistic equation.

[4] = dog liver microsomes, read-out: Dog LM Clint
[5] = dog liver microsomes, read-out: Dog LM T½
[6] = human liver microsomes, read-out: Human LM Clint
[7] = human liver microsomes, read-out: Human LM T½
[8] = rat liver microsomes, read-out: Rat LM Clint
[9] = rat liver microsomes, read-out: Rat LM T½
[10] = human whole blood, IFN-alpha 20 mins, CD3 cells

T1 sequence (P29597 589-875 limits assumed): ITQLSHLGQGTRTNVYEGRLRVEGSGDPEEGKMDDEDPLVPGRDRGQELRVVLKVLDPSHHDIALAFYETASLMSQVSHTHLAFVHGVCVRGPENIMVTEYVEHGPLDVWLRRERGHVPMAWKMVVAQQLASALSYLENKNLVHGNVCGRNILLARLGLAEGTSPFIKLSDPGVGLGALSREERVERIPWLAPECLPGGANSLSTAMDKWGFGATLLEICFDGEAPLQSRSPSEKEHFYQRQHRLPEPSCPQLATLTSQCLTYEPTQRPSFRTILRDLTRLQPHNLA

| Compound | IC50 (TYK2-JH2 domain) [nM] | JAK1/TYK2 selectivity (TYK2-JH2 domain) | microsomal CLint at 1 μM [1, 4] [µL/min/mg] | half-life at 1 μM [1, 5] [h] | microsomal CLint at 1 μM [1, 6] [µL/min/mg] | half-life at 1 μM [1, 7] [h] | microsomal CLint at 1 μM [1, 8] [µL/min/mg] | half-life at 1 μM [1, 9] [h] | GI50 [2] [nM] | IC50 (JAK1-JH2 domain) [nM] | CLint scaled at 1 μM [3] [mL/min/kg] | half-life at 1 μM [3] [h] | IC50 (pSTAT1; [10]) [nM] | IC50 (pSTAT1; Homo sapiens) [nM] |
| --- | --- | --- | --- | --- | --- | --- | --- | --- | --- | --- | --- | --- | --- | --- |
| [2H]C([2H])([2H])NC(=O)c1cnc(NC(=O)C2CC2)cc1Nc1ccc2ccn(CC)c2c1OC [Example 244, 6-(Cyclopropanecarboxamido)-4-((1-ethyl-7-methoxy-1H-indol-6-yl)amino)-N-(methyl-d3)nicotinamide] | 0.125 | 36.6 | – | – | – | – | – | – | 18.1 | 4.58 | – | – | – | 190 |
| [2H]C([2H])([2H])NC(=O)c1nnc(NC(=O)C2CC2)cc1Nc1cccc(-c2ncn(C)n2)c1OC [Example 41, 6-(Cyclopropanecarboxamido)-4-((2-methoxy-3-(1-methyl-1H-1,2,4-triazol-3-yl)phenyl)amino)-N-(methyl-d3)pyridazine-3-carboxamide] | – | – | – | – | – | – | – | – | – | – | < 17.8 | > 3.61 | – | – |
| [2H]C([2H])([2H])NC(=O)c1cnc(NC(=O)C2CC2)cc1Nc1cn(C)c2ccn(CCO)c(=O)c12 [Example 113, 6-(Cyclopropanecarboxamido)-4-((5-(2-hydroxyethyl)-1-methyl-4-oxo-4,5-dihydro-1H-pyrrolo[3,2-c]pyridin-3-yl)amino)-N-(methyl-d3)nicotinamide] | – | – | – | – | – | – | – | – | 2390 | – | – | – | 344 | – |
| [2H]C([2H])([2H])NC(=O)c1nnc(NC(=O)C2CC2)cc1Nc1cn(C)c2ccn(C)c(=O)c12 [Example 224, 6-(Cyclopropanecarboxamido)-4-((1,5-dimethyl-4-oxo-4,5-dihydro-1H-pyrrolo[3,2-c]pyridin-3-yl)amino)-N-(methyl-d3)pyridazine-3-carboxamide] | – | – | – | – | – | – | – | – | 214 | – | – | – | 426 | – |
| [2H]C([2H])([2H])NC(=O)c1cnc(NC(=O)C2CC2)cc1Nc1nn(CC)c2ccn(CC(F)(F)F)c(=O)c12 [Example 105, 6-(Cyclopropanecarboxamido)-4-((1-ethyl-4-oxo-5-(2,2,2-trifluoroethyl)-4,5-dihydro-1H-pyrazolo[4,3-c]pyridin-3-yl)amino)-N-(methyl-d3)nicotinamide] | 0.733 | – | 10.4 | 2.22 | 5.58 | 4.14 | 45.9 | 0.503 | 146 | – | 8.69 | 3.38 | – | – |
| [2H]C([2H])([2H])NC(=O)c1cnc(Nc2cnn(C3CC3)c2)nc1Nc1ccc2cnn(CC)c2c1OC([2H])([2H])[2H] [Example 137, 2-((1-Cyclopropyl-1H-pyrazol-4-yl)amino)-4-((1-ethyl-7-(methoxy-d3)-1H-indazol-6-yl)amino)-N-(methyl-d3)pyrimidine-5-carboxamide] | – | – | – | – | – | – | – | – | 335 | – | 14.4 | 2.04 | – | – |

The next lines start with results.

| IC50 (TYK2-JH2 domain) [nM] | JAK1/TYK2 selectivity (TYK2-JH2 domain) | microsomal CLint at 1 μM [1, 4] [µL/min/mg] | half-life at 1 μM [1, 5] [h] | microsomal CLint at 1 μM [1, 6] [µL/min/mg] | half-life at 1 μM [1, 7] [h] | microsomal CLint at 1 μM [1, 8] [µL/min/mg] | half-life at 1 μM [1, 9] [h] | GI50 [2] [nM] | IC50 (JAK1-JH2 domain) [nM] | CLint scaled at 1 μM [3] [mL/min/kg] | half-life at 1 μM [3] [h] | IC50 (pSTAT1; [10]) [nM] | Compound | IC50 (pSTAT1; Homo sapiens) [nM] |
| --- | --- | --- | --- | --- | --- | --- | --- | --- | --- | --- | --- | --- | --- | --- |
| 0.357 | 70.6 | 42.1 | 0.548 | 79.9 | 0.289 | 106 | 0.221 | 53.9 | 25.2 | 13.9 | 2.12 | – | [2H]C([2H])([2H])NC(=O)c1cnc(Nc2ccncn2)cc1Nc1cc(F)c2cnn(CC)c2c1OC [Example 157, 4-((1-Ethyl-4-fluoro-7-methoxy-1H-indazol-6-yl)amino)-N-(methyl-d3)-6-(pyrimidin-4-ylamino)nicotinamide] | – |
| 0.173 | 106.7 | – | – | – | – | – | – | 46.6 | 18.5 | – | – | 468 | [2H]C([2H])([2H])NC(=O)c1cnc(NC(=O)C2CC2)cc1Nc1nn(CC2CC2)c2ccn(CC(F)(F)F)c(=O)c12 [Example 203, 6-(Cyclopropanecarboxamido)-4-((1-(cyclopropylmethyl)-4-oxo-5-(2,2,2-trifluoroethyl)-4,5-dihydro-1H-pyrazolo[4,3-c]pyridin-3-yl)amino)-N-(methyl-d3)nicotinamide] | – |
| 0.262 | 25.7 | – | – | – | – | – | – | 44.7 | 6.74 | – | – | 440 | [2H]C([2H])([2H])NC(=O)c1cnc(NC(=O)C2CC2)cc1Nc1ccn2ncc(Cl)c2c1OC [Example 235, 4-((3-Chloro-4-methoxypyrazolo[1,5-a]pyridin-5-yl)amino)-6-(cyclopropanecarboxamido)-N-(methyl-d3)nicotinamide] | – |
| – | – | 31.9 | 0.725 | 7.54 | 3.06 | 47.4 | 0.488 | 44.4 | – | < 7.35 | > 4 | – | [2H]C([2H])([2H])NC(=O)c1nnc2cc1Nc1cc(cc(-c3ncn(C)n3)c1OC)COCc1nc(ccc1F)N2 [Example 67, 18-Fluoro-10-methoxy-N-(methyl-d3)-11-(1-methyl-1H-1,2,4-triazol-3-yl)-15-oxa-2,4,5,8,21-pentaazatetracyclo[15.3.1.1^{3,7}.1^{9,13}]tricosa-1(20),3,5,7(23),9(22),10,12,17(21),18-nonaene-6-carboxamide] | – |
| 0.287 | 154 | – | – | – | – | – | – | 76.2 | 44.2 | – | – | 94.3 | [2H]C([2H])([2H])NC(=O)c1cnc(NC(=O)C2CC2)cc1Nc1ncc2cnn(CC(F)(F)F)c2c1OC [Example 266, 6-(Cyclopropanecarboxamido)-4-((7-methoxy-1-(2,2,2-trifluoroethyl)-1H-pyrazolo[4,3-c]pyridin-6-yl)amino)-N-(methyl-d3)nicotinamide] | – |
| 0.188 | 28.8 | – | – | – | – | – | – | 84.7 | 5.41 | – | – | 157 | [2H]C([2H])([2H])NC(=O)c1cnc(NC(=O)C2CC2)cc1Nc1ccn2ncc(CC#N)c2c1OC [Example 239, 4-((3-(Cyanomethyl)-4-methoxypyrazolo[1,5-a]pyridin-5-yl)amino)-6-(cyclopropanecarboxamido)-N-(methyl-d3)nicotinamide] | – |
| – | – | – | – | 24 | 0.963 | – | – | 70.8 | – | 18.9 | 1.55 | – | [2H]C([2H])([2H])NC(=O)c1cnc(NC(=O)C2CC2)cc1Nc1ccc2cnn(CC)c2c1OC([2H])([2H])[2H] [Example 132, 6-(Cyclopropanecarboxamido)-4-((1-ethyl-7-(methoxy-d3)-1H-indazol-6-yl)amino)-N-(methyl-d3)nicotinamide] | – |

Source: patent US20250115597A1, “TYK2 INHIBITORS AND COMPOSITIONS AND METHODS THEREOF” (LYNK PHARMACEUTICALS CO. LTD., priority 2021, published 2025)
